Laboratory results: patent EP2951180B1, “2,6,7,8 SUBSTITUTED PURINES AS HDM2 INHIBITORS” (Merck Sharp & Dohme Corp., priority 2013, dated 2014)

biological target: T1, HDM2 (Homo sapiens, UniProt Q00987); experiment: HDM2 FRET assay (inhibition of binding of FITC labeled p53-pocket peptide to HDM2); details: Table 11; read-out: FRET IC50
T1 construct: Thioredoxin (N); made in house; host or cells: E. coli strain BL21(DE3)Rosetta
Outline: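 Signal is read as the 520/495 nm emission ratio and converted to percent inhibition; nonlinear sigmoidal regression yields IC50. The assay mixes HDM2 (0.5 nM), FITC-p53 peptide (3 nM) and Tb anti-His antibody (0.25 nM) at 0.1% DMSO.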

T1 sequence (Q00987 17-125): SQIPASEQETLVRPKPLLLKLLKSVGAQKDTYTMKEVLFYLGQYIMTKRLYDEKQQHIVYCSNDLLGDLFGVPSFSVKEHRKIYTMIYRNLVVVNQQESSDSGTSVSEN

In order of falling IC50:
1. C[C@@H](Nc1nc(-c2noc(=O)[nH]2)nc2nc(NCc3c[nH]nc3-c3ccccc3)n(C[C@H]3CC[C@H](C)CC3)c12)C1CCC1 [Example 11.112, 3-(6-{[(1R)-1-cyclobutylethyl]amino}-7-[(trans-4-methylcyclohexyl)methyl]-8-{[(3-phenyl-1H-pyrazol-4-yl)methyl]amino}-7H-purin-2-yl)-1,2,4-oxadiazol-5(2H)-one]  215 nM
2. CC(Nc1nc2nc(-c3noc(=O)[nH]3)nc(N[C@H](C)C3CCC3)c2n1C[C@H]1CC[C@H](C)CC1)c1ccno1 (stereo partly drawn) [Example 11.87, 3-(6-{[(1R)-1-cyclobutylethyl]amino}-8-[(1-isoxazol-5-ylethyl)amino]-7-[(trans-4-methylcyclohexyl)methyl]-7H-purin-2-yl)-1,2,4-oxadiazol-5(2H)-one]  105 nM
3. C[C@@H](Nc1nc(-c2noc(=O)[nH]2)nc2nc(N3CCC(C)(O)C3)n(C[C@H]3CC[C@H](C)CC3)c12)C1CCC1 (stereo partly drawn) [Example 11.113, 3-(6-{[(1R)-1-cyclobutylethyl]amino}-8-(3-hydroxy-3-methylpyrrolidin-1-yl)-7-[(trans-4-methylcyclohexyl)methyl]-7H-purin-2-yl)-1,2,4-oxadiazol-5(2H)-one]  57.7 nM
4. Cc1nn(C)cc1CNc1nc2nc(-c3noc(=O)[nH]3)nc(N[C@H](C)C3CCC3)c2n1C[C@H]1CC[C@H](C)CC1 [Example 11.109, 3-(6-{[(1R)-1-cyclobutylethyl]amin ο}-8-{[(1,3-dimethyl-1H-pyrazol-4-yl)methyl]amino} -7-[(trans-4-methylcyclohexyl)methyl]-7H-purin-2-yl)-1,2,4-oxadiazol-5(2H)-one]  55.6 nM
5. COC1CCN(c2nc3nc(-c4noc(=O)[nH]4)nc(N[C@H](C)C4CCC4)c3n2C[C@H]2CC[C@H](C)CC2)C1 (stereo partly drawn) [Example 11.114, 3-(6-{[(1R)-1-cyclobutylethyl]amino}-8-(3-methoxypyrrolidin-1-yl)-7-[(trans-4-methylcyclohexyl)methyl]-7H-purin-2-yl)-1,2,4-oxadiazol-5(2H)-one]  52.9 nM
6. C[C@@H](Nc1nc(-c2noc(=O)[nH]2)nc2nc(N3CCCOCC3)n(C[C@H]3CC[C@H](C)CC3)c12)C1CCC1 [Example 11.105, 3-[6-{[(1R)-1-cyclobutylethyl]amino}-7-[(trans-4-methylcyclohexyl)methyl]-8-(1,4-oxazepan-4-yl)-7H-purin-2-yl]-1,2,4-oxadiazol-5(2H)-one]  42.6 nM
7. C[C@@H](Nc1nc(-c2noc(=O)[nH]2)nc2nc(N3CC(C)(O)C3)n(C[C@H]3CC[C@H](C)CC3)c12)C1CCC1 [Example 11.103, 3-(6-{[(1R)-1-cyclobutylethyl]amino}-8-(3-hydroxy-3-methylazetidin-1-yl)-7-[(trans-4-methylcyclohexyl)methyl]-7H-purin-2-yl)-1,2,4-oxadiazol-5(2H)-one]  36.2 nM
8. COC1(C)CN(c2nc3nc(-c4noc(=O)[nH]4)nc(N[C@H](C)C4CCC4)c3n2C[C@H]2CC[C@H](C)CC2)C1 [Example 11.102, 3-(6-{[(1R)-1-cyclobutylethyl]amino}-8-(3-methoxy-3-methylazetidin-1-yl)-7-[(trans-4-methylcyclohexyl)methyl]-7H-purin-2-yl)-1,2,4-oxadiazol-5(2H)-one]  20.8 nM
9. C[C@@H](Nc1nc(-c2noc(=O)[nH]2)nc2nc(N3CCOC[C@H]3Cc3ccccc3)n(C[C@H]3CC[C@H](C)CC3)c12)C1CCC1 [Example 11.101, 3-{8-[(3R)-3-benzylmorpholin-4-yl]-6-{[(1R)-1-cyclobutylethyl]amino}-7-[(trans-4-methylcyclohexyl)methyl]-7H-purin-2-yl}-1,2,4-oxadiazol-5(4H)-one]  16.2 nM
10. CC(Nc1nc2nc(-c3noc(=O)[nH]3)nc(N[C@H](C)C3CCC3)c2n1C[C@H]1CC[C@H](C)CC1)c1ccncn1 (stereo partly drawn) [Example 11.89, 3-(6-{[(1R)-1-cyclobutylethyl]amino}-7-[(trans-4-methylcyclohexyl)methyl]-8-[(1-pyrimidin-4-ylethyl)amino]-7H-purin-2-yl)-1,2,4-oxadiazol-5(2H)-one]  13.8 nM
11. CC(Nc1nc2nc(-c3noc(=O)[nH]3)nc(N[C@H](C)C3CCC3)c2n1C[C@H]1CC[C@H](C)CC1)c1cncnc1 (stereo partly drawn) [Example 11.92, 3-(6-{[(1R)-1-cyclobutylethyl]amino}-7-[(trans-4-methylcyclohexyl)methyl]-8-[(1-pyrimidin-5-ylethyl)amino]-7H-purin-2-yl)-1,2,4-oxadiazol-5(2H)-one]  11.7 nM
12. C[C@@H](Nc1nc(-c2noc(=O)[nH]2)nc2nc(N3CCOCC(F)(F)C3)n(C[C@H]3CC[C@H](C)CC3)c12)C1CCC1 [Example 11.104, 3-(6-{[(1R)-1-cyclobutylethyl]amino}-8-(6,6-difluoro-1,4-oxazepan-4-yl)-7-[(trans-4-methylcyclohexyl)methyl]-7H-purin-2-yl)-1,2,4-oxadiazol-5(2H)-one]  9.24 nM
13. C[C@@H](Nc1nc(-c2noc(=O)[nH]2)nc2nc(N3CCC[C@H]3c3nnnn3C)n(C[C@H]3CC[C@H](C)CC3)c12)C1CCC1 [Example 11.110, 3-(6-{[(1R)-1-cyclobutylethyl]amino}-7-[(trans-4-methylcyclohexyl)methyl]-8-[(2S)-2-(1-methyl-1H-tetrazol-5-yl)pyrrolidin-1-yl]-7H-purin-2-yl)-1,2,4-oxadiazol-5(2H)-one]  6.76 nM
14. Cc1nonc1CNc1nc2nc(-c3noc(=O)[nH]3)nc(N[C@H](C)C3CCC3)c2n1C[C@H]1CC[C@H](C)CC1 [Example 11.111, 3-(6-{[(1R)-1-cyclobutylethyl]amino}-7-[(trans-4-methylcyclohexyl)methyl]-8-{[(4-methyl-1,2,5-oxadiazol-3-yl)methyl]amino}-7H-purin-2-yl)-1,2,4-oxadiazol-5(2H)-one]  6.34 nM
15. Cc1noc(C(C)Nc2nc3nc(-c4noc(=O)[nH]4)nc(N[C@H](C)C4CCC4)c3n2C[C@H]2CC[C@H](C)CC2)n1 (stereo partly drawn) [Example 11.90, 3-(6-{[(1R)-1-cyclobutylethyl]amino}-7-[(trans-4-methylcyclohexyl)methyl]-8-{[1-(3-methyl-1,2,4-oxadiazol-5-yl)ethyl]amino} -7H-purin-2-yl)-1,2,4-oxadiazol-5(2H)-one]  4.04 nM
16. CC(Nc1nc2nc(-c3noc(=O)[nH]3)nc(N[C@H](C)C3CCC3)c2n1C[C@H]1CC[C@H](C)CC1)c1cscn1 (stereo partly drawn) [Example 11.88, 3-(6-{[(1R)-1-cyclobutylethyl]amino}-7-[(trans-4-methylcyclohexyl)methyl]-8-{[1-(1,3-thiazol-4-yl)ethyl]amino}-7H-purin-2-yl)-1,2,4-oxadiazol-5(2H)-one]  3.83 nM
17. C[C@@H](Nc1nc(-c2noc(=O)[nH]2)nc2nc(N3CCOCC3c3ccc(Cl)cc3)n(C[C@H]3CC[C@H](C)CC3)c12)C1CCC1 (stereo partly drawn) [Example 11.99, 3-{8-[3-(4-chlorophenyl)morpholin-4-yl]-6-{[(1R)-1-cyclobutylethyl]amino}-7-[(trans-4-methylcyclohexyl)methyl]-7H-purin-2-yl}-1,2,4-oxadiazol-5(4H)-one]  3.43 nM
18. Cc1nc(C(C)Nc2nc3nc(-c4noc(=O)[nH]4)nc(N[C@H](C)C4CCC4)c3n2C[C@H]2CC[C@H](C)CC2)cs1 (stereo partly drawn) [Example 11.86, 3-(6-{[(1R)-1-cyclobutylethyl]amino}-7-[(trans-4-methylcyclohexyl)methyl]-8-{[1-(2-methyl-1,3-thiazol-4-yl)ethyl]amino} -7H-purin-2-yl)-1,2,4-oxadiazol-5(2H)-one]  3.39 nM
19. C[C@H](Nc1nc2nc(-c3noc(=O)[nH]3)nc(N[C@H](C)C3CCC3)c2n1C[C@H]1CC[C@H](C)CC1)c1cccc(F)c1 [Example 11.106, 3-(6-{[(1R)-1-cyclobutylethyl]amino}-8-{[(1S)-1-(3-fluorophenyl)ethyl]amino}-7-[(trans-4-methylcyclohexyl)methyl]-7H-purin-2-yl)-1,2,4-oxadiazol-5(2H)-one]  3.22 nM
20. C[C@@H](Nc1nc(-c2noc(=O)[nH]2)nc2nc(N3CCOCC3(C)C)n(C[C@H]3CC[C@H](C)CC3)c12)C1CCC1 [Example 11.98, 3-(6-{[(1R)-1-cyclobutylethyl]amino}-8-(3,3-dimethylmorpholin-4-yl)-7-[(trans-4-methylcyclohexyl)methyl]-7H-purin-2-yl)-1,2,4-oxadiazol-5(4H)-one]  2.52 nM
21. C[C@@H]1COCCN1c1nc2nc(-c3n[nH]c(=O)o3)nc(N[C@H](C)C3CCC3)c2n1C[C@H]1CC[C@H](C)CC1 [Example 11.97, 5-(6-{[(1R)-1-cyclobutylethyl]amino}-7-[(trans-4-methylcyclohexyl)methyl]-8-[(3R)-3-methylmorpholin-4-yl]-7H-purin-2-yl)-1,3,4-oxadiazol-2(3H)-one]  1.94 nM
22. Cc1nonc1C1CCCN1c1nc2nc(-c3noc(=O)[nH]3)nc(N[C@H](C)C3CCC3)c2n1C[C@H]1CC[C@H](C)CC1 (stereo partly drawn) [Example 11.108, 3-(6-{[(1R)-1-cyclobutylethyl]amino}-7-[(trans-4-methylcyclohexyl)methyl]-8-[2-(4-methyl-1,2,5-oxadiazol-3-yl)pyrrolidin-1-yl]-7H-purin-2-yl)-1,2,4-oxadiazol-5(2H)-one]  1.6 nM
23. C[C@@H](Nc1nc(-c2noc(=O)[nH]2)nc2nc(N3CCOCC3c3ccccc3Cl)n(C[C@H]3CC[C@H](C)CC3)c12)C1CCC1 (stereo partly drawn) [Example 11.100, 3-{8-[3-(2-chlorophenyl)morpholin-4-yl]-6-{[(1R)-1-cyclobutylethyl]amino}-7-[(trans-4-methylcyclohexyl)methyl]-7H-purin-2-yl}-1,2,4-oxadiazol-5(4H)-one]  0.936 nM
24. COC(C)(C)C1CCCN1c1nc2nc(-c3noc(=O)[nH]3)nc(N[C@H](C)C3CCC3)c2n1C[C@H]1CC[C@H](C)CC1 (stereo partly drawn) [Example 11.107, 3-(6-{[(1R)-1-cyclobutylethyl]amino}-8-[2-(1-methoxy-1-methylethyl)pyrrolidin-1-yl]-7-[(trans-4-methylcyclohexyl)methyl]-7H-purin-2-yl)-1,2,4-oxadiazol-5(2H)-one]  0.507 nM
